Experimental data published in patent publication US8658403B2, “Method for producing polyhydroxyalkanoic acid” (priority 2009, dated 2014).

Legend:
Format in all cases: cell-based, Pseudomonas fluorescens
[1] = system: P. fluorescens BM07 wild-type; assay: PHA production, one-step cultivation on 50 mM fructose and 5 mM 11-POU; settings: 1 mM salicylic acid, 50 mM fructose + 5 mM 11-POU; for Dry cell weight / PHA (aliphatic monomer) / PHA (aromatic monomer) / Polyester content: 30° C.
Protocol: (§1) In the main cultures, 500 μl of the culture grown in NR or LB medium was transferred to 50 ml M1 mineral-salts medium containing 50 mM fructose, 5 mM 11-POU, 0 or 1 mM salicylic acid and 1.0 g/L ammonium sulfate in a 250 mL flask and cultivated at 30° C. Salicylic acid was dissolved by adding sodium hydroxide and the pH of the solution was adjusted to 7.2 before adding to medium. Cell growth was determined by measuring dry cell weight (DCW). The remaining fructose was measured using DNS method and the remaining 11-POU or other carboxylic acids were determined by gas chromatography. The cells were isolated by centrifuging (10,000×g, 10 min), the cell suspension was washed with methanol and dried under vacuum at room temperature for 48 hours. The remaining NH4^+ was measured using Nessler's reagent. In the time-course profiling experiments, a set of culture flasks equal to the planned sampling times (every 4 or 6 h) was prepared and cultivated under the same culture condition. One of the flasks was withdrawn every scheduled time and the medium (50 ml) was centrifuged and analyzed.
(§2) The monomer composition of the PHA in cells was determined by analyzing the methyl esters, recovered from a sulfuric acid/methanol treatment of the cells, using a Hewlett-Packard HP5890 Series II gas chromatograph equipped with a HP-1 capillary column and a flame ionization detector. The gas chromatography (GC) run conditions were as follows: initial temperature of 80° C. for 2 min; heating rate of 8° C./min; final temperature of 250° C. for 6.75 min; carrier (He) flow rate of 3 ml/min; injector temperature of 230° C.; and detector temperature of 280° C. The standardization of each GC peak was made against the PHA of known structure characterized by quantitative NMR analyses

BM07-ΔphaZ [2] = assay: as above; settings: 1 mM salicylic acid, 50 mM fructose + 5 mM 11-POU; for Dry cell weight / PHA (aliphatic monomer) / PHA (aromatic monomer) / Polyester content: 30° C.
Protocol: as §1, §2

BM07 (pBBR-phaZ) = assay: PHA production on 50 mM fructose/5 mM 11-POU in PhaZ over-expressed strain; settings: 1 mM salicylic acid
Protocol: as §1, with “In the time-course profiling experiments, a set of culture flasks equal to the planned sampling times (every 4 or 6 h) was prepared and cultivated under the same culture condition.” left out
The monomer composition of the PHA in cells was determined by analyzing the methyl esters, recovered from a sulfuric acid/methanol treatment of the cells, using a Hewlett-Packard HP5890 Series II gas chromatograph equipped with a HP-1 capillary column and a flame ionization detector. […] The standardization of each GC peak was made against the PHA of known structure characterized by quantitative NMR analyses

BM07 wild-type = assay: Aromatic PHA production, one-step cultivation on 50 mM fructose and 10 mM 5-PV or 6PC; settings: 1 mM salicylic acid, 30° C.
Protocol: as §1, with “In the main cultures, 500 μl of the culture grown in NR or LB medium was transferred to 50 ml M1 mineral-salts medium containing 50 mM fructose, 5 mM 11-POU, 0 or 1 mM salicylic acid and 1.0 g/L ammonium sulfate in a 250 mL flask and cultivated at 30° C.” left out
as §2

BM07-ΔphaZ [3] = assay: as above; settings: 1 mM salicylic acid, 30° C., culture time 72 h
Protocol: as §1, with “In the main cultures, 500 μl of the culture grown in NR or LB medium was transferred to 50 ml M1 mineral-salts medium containing 50 mM fructose, 5 mM 11-POU, 0 or 1 mM salicylic acid and 1.0 g/L ammonium sulfate in a 250 mL flask and cultivated at 30° C.” left out
as §2

[4] = 50 mM fructose + 10 mM 5PV, culture time 72 h
[5] = 50 mM fructose + 10 mM 6PC, culture time 60 h

SMILES: O=C(O)c1ccccc1O [Salicylic acid, salicylic acid]
- Incorporation of aliphatic monomer-units, share of the total PHA content [1]: ~10%
- Dry cell weight ([1]; culture time 48 h): 1.36 ± 0.10 g/L
- PHA (aliphatic monomer) ([1]; culture time 48 h): 3.1 ± 0.2 wt. %
- PHA (aromatic monomer) ([1]; culture time 48 h): 20.8 ± 0.9 wt. %
- Polyester content ([1]; culture time 48 h): 23.9 ± 1.1 wt. %
- Dry cell weight ([1]; culture time 72 h): 1.78 ± 0.06 g/L
- PHA (aliphatic monomer) ([1]; culture time 72 h): 2.5 ± 0.5 wt. %
- PHA (aromatic monomer) ([1]; culture time 72 h): 26.8 ± 1.6 wt. %
- Polyester content ([1]; culture time 72 h): 29.3 ± 2.1 wt. %
- Content of aliphatic MCL-monomer-units, share of the total PHA (BM07-ΔphaZ [2]): ~10%
- Effect on accumulation of aromatic PHA from 11-POU (BM07-ΔphaZ [2]): significantly retarded the accumulation of aromatic PHA from 11-POU
- Effect on cell growth (BM07-ΔphaZ [2]): did not significantly delay the cell growth
- Time of maximum PHA accumulation (BM07-ΔphaZ [2]): around 70 hours
- Time of maximum cell growth (BM07-ΔphaZ [2]): 50 to 60 h
- Dry cell weight (BM07-ΔphaZ [2]; culture time 72 h): 1.68 ± 0.11 g/L
- PHA (aliphatic monomer) (BM07-ΔphaZ [2]; culture time 72 h): 4.8 ± 0.3 wt. %
- PHA (aromatic monomer) (BM07-ΔphaZ [2]; culture time 72 h): 44.1 ± 1.6 wt. %
- Polyester content (BM07-ΔphaZ [2]; culture time 72 h): 48.9 ± 1.9 wt. %
- Dry cell weight (BM07-ΔphaZ [2]; culture time 96 h): 1.72 ± 0.09 g/L
- PHA (aliphatic monomer) (BM07-ΔphaZ [2]; culture time 96 h): 4.3 ± 0.4 wt. %
- PHA (aromatic monomer) (BM07-ΔphaZ [2]; culture time 96 h): 48.7 ± 1.4 wt. %
- Polyester content (BM07-ΔphaZ [2]; culture time 96 h): 53.0 ± 1.8 wt. %
- Incorporation of aliphatic monomer-units, share of the total PHA content at the maximum accumulation (BM07 (pBBR-phaZ)): < 4%
- Aromatic PHA content (BM07 wild-type; [4]): 34.2 ± 1.5 wt. %
- Dry cell weight (BM07 wild-type; [4]): 1.98 ± 0.08 g/L
- Aromatic PHA content (BM07 wild-type; [5]): 32.8 ± 1.7 wt. %
- Dry cell weight (BM07 wild-type; [5]): 1.78 ± 0.13 g/L
- Aromatic PHA content (BM07-ΔphaZ [3]; 50 mM fructose + 10 mM 5PV): 49.9 ± 1.3 wt. %
- Dry cell weight (BM07-ΔphaZ [3]; 50 mM fructose + 10 mM 5PV): 2.10 ± 0.06 g/L
- Aromatic PHA content (BM07-ΔphaZ [3]; 50 mM fructose + 10 mM 6PC): 35.1 ± 1.2 wt. %
- Dry cell weight (BM07-ΔphaZ [3]; 50 mM fructose + 10 mM 6PC): 1.72 ± 0.08 g/L
